Assay results reported in ChEMBL document CHEMBL4507268 (2021).

What was measured:
Settings in all cases: Compound concentration 1000.0 nM
[1] = target: T1, Serine/threonine-protein kinase Nek3 (Homo sapiens) (UniProt P51956)
T1 sequence (whole entry): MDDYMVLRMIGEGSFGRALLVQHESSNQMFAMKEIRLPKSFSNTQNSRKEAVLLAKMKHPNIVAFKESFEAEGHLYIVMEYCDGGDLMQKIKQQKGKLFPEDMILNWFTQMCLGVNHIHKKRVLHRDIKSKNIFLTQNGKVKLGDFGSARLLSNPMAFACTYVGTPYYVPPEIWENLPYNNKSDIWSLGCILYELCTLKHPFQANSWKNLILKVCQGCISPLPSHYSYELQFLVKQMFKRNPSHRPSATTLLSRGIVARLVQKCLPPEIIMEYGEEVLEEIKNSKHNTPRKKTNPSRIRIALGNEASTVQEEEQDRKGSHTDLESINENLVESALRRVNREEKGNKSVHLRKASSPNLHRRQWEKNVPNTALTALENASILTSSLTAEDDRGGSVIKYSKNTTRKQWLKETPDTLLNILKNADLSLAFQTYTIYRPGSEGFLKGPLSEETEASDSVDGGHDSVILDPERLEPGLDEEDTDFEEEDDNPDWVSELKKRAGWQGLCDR

[2] = target: Serine/threonine-protein kinase 32A (Homo sapiens) (UniProt Q8WU08)
[3] = target: Homeodomain-interacting protein kinase 2 (Homo sapiens) (UniProt Q9H2X6)
[4] = target: Interferon-induced, double-stranded RNA-activated protein kinase (Homo sapiens) (UniProt P19525)
[5] = target: Serine/threonine-protein kinase Nek4 (Homo sapiens) (UniProt P51957)
[6] = target: Serine/threonine-protein kinase 24 (Homo sapiens) (UniProt Q9Y6E0)
[7] = target: Serine/threonine-protein kinase VRK2 (Homo sapiens) (UniProt Q86Y07)
[8] = target: Dual specificity mitogen-activated protein kinase kinase 2 (Homo sapiens) (UniProt P36507)
[9] = target: Mitogen-activated protein kinase 15 (Homo sapiens) (UniProt Q8TD08)
[10] = target: T2, cGMP-dependent protein kinase 2 (Homo sapiens) (UniProt Q13237)
T2 sequence (whole entry): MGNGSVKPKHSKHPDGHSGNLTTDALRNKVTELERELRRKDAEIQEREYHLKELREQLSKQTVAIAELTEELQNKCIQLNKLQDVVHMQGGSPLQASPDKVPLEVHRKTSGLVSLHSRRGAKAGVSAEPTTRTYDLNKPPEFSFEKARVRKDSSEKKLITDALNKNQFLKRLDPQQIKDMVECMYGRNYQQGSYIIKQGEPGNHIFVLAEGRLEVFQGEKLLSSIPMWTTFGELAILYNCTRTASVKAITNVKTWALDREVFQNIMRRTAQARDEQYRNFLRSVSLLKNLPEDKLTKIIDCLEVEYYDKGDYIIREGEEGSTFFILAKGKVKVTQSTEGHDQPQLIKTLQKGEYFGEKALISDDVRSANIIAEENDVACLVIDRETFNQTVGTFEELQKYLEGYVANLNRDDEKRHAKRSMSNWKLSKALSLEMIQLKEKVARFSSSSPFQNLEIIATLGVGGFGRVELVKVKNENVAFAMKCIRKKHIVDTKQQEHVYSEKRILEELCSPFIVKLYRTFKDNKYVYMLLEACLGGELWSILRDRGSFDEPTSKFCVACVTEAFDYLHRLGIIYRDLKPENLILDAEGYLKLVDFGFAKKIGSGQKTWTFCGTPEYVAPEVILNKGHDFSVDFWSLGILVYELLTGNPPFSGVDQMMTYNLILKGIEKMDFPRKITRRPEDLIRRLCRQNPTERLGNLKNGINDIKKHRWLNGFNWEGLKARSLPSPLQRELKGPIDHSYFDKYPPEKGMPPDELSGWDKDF

[11] = target: Rho-associated protein kinase 2 (Homo sapiens) (UniProt O75116)
[12] = target: RAC-gamma serine/threonine-protein kinase (Homo sapiens) (UniProt Q9Y243)
[13] = target: Serine/threonine-protein kinase mTOR (Homo sapiens) (UniProt P42345)
[14] = target: Fibroblast growth factor receptor 3 (Homo sapiens) (UniProt P22607)
[15] = target: Serine/threonine-protein kinase WNK4 (Homo sapiens) (UniProt Q96J92)
[16] = target: Casein kinase I isoform alpha (Homo sapiens) (UniProt P48729)
[17] = target: Ribosomal protein S6 kinase alpha-1 (Homo sapiens) (UniProt Q15418)
[18] = target: Glycogen synthase kinase-3 beta (Homo sapiens) (UniProt P49841)
[19] = target: Calcium/calmodulin-dependent protein kinase kinase 2 (Homo sapiens) (UniProt Q96RR4)
[20] = target: Mitogen-activated protein kinase kinase kinase 14 (Homo sapiens) (UniProt Q99558)
[21] = target: STE20-like serine/threonine-protein kinase (Homo sapiens) (UniProt Q9H2G2)
[22] = target: Activin receptor type-1-like (Homo sapiens) (UniProt P37023)
[23] = target: cAMP-dependent protein kinase catalytic subunit beta (Homo sapiens) (UniProt P22694)
[24] = target: Ribosomal protein S6 kinase alpha-2 (Homo sapiens) (UniProt Q15349)

Measured: residual activity

Sequence of Casein kinase I isoform alpha (Homo sapiens) (P48729 2-337 limits assumed): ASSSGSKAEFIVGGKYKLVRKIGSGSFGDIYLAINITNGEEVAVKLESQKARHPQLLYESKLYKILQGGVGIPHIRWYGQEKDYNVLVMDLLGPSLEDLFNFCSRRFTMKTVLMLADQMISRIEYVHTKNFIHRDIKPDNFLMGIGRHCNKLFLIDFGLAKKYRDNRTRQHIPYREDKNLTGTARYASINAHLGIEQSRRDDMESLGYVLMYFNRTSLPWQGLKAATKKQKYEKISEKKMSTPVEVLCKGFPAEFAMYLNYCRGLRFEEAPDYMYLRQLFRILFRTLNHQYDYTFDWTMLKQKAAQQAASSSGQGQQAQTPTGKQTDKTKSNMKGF
Sequence of Ribosomal protein S6 kinase alpha-2 (Homo sapiens) (Q15349 whole entry): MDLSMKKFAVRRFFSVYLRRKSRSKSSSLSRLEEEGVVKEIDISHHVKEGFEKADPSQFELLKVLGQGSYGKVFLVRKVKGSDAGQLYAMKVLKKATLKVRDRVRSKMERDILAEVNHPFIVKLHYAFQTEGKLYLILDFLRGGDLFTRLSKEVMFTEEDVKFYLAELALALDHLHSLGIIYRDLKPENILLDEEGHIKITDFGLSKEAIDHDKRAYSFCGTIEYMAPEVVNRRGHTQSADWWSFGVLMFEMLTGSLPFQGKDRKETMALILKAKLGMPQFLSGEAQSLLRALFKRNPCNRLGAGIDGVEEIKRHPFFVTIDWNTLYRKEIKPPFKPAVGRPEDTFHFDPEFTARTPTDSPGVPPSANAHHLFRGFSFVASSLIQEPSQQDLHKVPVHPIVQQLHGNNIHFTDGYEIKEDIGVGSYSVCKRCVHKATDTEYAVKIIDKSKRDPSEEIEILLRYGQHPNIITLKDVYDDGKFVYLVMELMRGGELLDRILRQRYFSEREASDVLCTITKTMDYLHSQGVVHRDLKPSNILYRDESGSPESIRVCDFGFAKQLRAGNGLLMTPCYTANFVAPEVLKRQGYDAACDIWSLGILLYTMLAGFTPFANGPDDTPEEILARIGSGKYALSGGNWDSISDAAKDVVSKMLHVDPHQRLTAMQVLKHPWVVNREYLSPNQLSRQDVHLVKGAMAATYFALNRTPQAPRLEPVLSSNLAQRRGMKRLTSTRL
Sequence of Serine/threonine-protein kinase WNK4 (Homo sapiens) (Q96J92 whole entry, canonical isoform): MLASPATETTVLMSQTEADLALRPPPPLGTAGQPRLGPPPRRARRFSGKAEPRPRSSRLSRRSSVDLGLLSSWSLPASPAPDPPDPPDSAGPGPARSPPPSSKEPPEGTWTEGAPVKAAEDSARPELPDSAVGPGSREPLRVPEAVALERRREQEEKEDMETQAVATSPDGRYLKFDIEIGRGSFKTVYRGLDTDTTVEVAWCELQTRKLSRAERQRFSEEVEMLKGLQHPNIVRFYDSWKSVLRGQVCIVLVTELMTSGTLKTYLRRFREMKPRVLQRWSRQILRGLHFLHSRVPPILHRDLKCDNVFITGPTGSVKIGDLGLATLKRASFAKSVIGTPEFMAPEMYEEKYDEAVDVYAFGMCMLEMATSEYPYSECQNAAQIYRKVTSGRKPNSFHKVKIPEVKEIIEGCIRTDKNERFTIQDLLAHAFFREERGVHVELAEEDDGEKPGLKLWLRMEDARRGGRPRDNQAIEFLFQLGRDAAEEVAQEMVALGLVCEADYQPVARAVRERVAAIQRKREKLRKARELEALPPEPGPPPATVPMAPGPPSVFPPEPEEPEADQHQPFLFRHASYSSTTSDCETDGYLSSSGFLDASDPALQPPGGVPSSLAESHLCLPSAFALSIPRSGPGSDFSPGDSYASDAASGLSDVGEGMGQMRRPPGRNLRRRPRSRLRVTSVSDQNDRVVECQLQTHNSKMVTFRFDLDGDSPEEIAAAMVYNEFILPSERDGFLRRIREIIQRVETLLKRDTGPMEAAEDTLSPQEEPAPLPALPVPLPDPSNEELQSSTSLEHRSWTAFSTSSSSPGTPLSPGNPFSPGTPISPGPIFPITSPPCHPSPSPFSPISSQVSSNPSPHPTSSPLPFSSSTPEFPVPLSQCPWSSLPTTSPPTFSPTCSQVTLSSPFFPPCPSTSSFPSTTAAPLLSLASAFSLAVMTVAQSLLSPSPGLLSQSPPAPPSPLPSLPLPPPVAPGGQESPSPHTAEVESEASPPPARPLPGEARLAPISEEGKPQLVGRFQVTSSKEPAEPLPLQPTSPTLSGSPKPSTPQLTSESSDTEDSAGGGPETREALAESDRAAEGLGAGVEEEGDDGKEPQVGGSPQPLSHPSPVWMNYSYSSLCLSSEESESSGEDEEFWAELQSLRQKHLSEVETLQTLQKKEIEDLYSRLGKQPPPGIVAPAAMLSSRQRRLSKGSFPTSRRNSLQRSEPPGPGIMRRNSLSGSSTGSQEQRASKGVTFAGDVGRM
Sequence of RAC-gamma serine/threonine-protein kinase (Homo sapiens) (Q9Y243 whole entry): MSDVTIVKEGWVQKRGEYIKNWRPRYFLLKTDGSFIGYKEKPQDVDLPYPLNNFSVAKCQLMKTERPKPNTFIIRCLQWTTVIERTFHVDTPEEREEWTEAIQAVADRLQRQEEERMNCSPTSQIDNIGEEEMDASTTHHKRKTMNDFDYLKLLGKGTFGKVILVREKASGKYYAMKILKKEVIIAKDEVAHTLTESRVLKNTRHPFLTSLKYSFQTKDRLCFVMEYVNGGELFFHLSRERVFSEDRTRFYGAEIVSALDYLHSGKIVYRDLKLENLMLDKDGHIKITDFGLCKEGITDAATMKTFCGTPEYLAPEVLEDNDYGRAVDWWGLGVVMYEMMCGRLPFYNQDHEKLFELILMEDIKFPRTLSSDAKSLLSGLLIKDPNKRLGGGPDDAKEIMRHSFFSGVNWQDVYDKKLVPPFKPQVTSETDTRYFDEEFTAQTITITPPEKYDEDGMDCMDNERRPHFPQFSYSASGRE
Sequence of Serine/threonine-protein kinase 24 (Homo sapiens) (Q9Y6E0 whole entry, looked up): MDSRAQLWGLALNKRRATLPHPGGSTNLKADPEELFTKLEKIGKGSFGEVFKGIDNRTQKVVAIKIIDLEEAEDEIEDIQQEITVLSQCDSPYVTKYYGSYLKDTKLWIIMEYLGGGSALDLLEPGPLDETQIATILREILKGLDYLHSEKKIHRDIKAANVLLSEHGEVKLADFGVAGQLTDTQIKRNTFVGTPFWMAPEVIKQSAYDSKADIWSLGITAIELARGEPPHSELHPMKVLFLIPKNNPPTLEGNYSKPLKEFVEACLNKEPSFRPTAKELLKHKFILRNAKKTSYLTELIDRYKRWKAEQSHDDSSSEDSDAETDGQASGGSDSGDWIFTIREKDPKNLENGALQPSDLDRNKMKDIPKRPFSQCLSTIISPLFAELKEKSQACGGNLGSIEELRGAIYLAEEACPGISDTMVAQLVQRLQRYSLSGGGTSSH
Sequence of Mitogen-activated protein kinase 15 (Homo sapiens) (Q8TD08 whole entry): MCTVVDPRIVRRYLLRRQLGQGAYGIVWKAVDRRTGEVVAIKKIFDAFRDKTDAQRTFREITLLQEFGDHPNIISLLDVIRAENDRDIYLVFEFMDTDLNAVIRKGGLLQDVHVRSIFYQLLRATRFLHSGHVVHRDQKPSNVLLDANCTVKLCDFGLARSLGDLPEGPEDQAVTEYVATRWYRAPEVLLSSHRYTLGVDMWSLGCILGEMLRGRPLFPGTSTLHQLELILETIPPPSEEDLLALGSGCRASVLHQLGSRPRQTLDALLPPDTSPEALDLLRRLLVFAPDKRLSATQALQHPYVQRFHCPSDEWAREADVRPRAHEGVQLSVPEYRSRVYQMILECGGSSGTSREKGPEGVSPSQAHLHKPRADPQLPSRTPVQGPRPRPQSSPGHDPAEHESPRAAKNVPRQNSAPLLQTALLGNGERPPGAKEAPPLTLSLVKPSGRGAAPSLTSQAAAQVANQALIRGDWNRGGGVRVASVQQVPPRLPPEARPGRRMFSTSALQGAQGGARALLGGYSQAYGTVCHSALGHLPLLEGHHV
Sequence of Fibroblast growth factor receptor 3 (Homo sapiens) (P22607 23-806 limits assumed): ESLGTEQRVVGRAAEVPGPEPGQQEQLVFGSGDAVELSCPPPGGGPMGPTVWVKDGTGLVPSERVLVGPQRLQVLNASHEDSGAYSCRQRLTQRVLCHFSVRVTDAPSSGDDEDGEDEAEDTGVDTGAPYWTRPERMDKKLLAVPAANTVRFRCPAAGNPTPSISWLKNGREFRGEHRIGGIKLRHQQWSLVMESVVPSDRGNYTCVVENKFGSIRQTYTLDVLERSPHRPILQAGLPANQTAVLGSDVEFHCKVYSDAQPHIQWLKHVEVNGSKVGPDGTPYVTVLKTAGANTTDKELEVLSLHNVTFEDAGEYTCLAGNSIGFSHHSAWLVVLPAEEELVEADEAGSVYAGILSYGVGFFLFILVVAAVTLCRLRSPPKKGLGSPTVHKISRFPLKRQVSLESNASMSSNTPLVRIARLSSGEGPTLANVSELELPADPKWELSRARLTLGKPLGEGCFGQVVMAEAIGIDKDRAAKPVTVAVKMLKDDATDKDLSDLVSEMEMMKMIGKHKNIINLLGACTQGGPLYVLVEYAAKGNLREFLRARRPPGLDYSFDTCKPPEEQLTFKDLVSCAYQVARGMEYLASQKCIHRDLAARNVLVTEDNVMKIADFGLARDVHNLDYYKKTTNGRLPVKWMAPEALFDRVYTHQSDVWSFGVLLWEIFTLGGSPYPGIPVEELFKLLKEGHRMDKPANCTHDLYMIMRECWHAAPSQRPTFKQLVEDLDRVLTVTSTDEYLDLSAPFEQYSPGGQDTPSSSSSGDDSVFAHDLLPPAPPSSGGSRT
Sequence of Dual specificity mitogen-activated protein kinase kinase 2 (Homo sapiens) (P36507 whole entry): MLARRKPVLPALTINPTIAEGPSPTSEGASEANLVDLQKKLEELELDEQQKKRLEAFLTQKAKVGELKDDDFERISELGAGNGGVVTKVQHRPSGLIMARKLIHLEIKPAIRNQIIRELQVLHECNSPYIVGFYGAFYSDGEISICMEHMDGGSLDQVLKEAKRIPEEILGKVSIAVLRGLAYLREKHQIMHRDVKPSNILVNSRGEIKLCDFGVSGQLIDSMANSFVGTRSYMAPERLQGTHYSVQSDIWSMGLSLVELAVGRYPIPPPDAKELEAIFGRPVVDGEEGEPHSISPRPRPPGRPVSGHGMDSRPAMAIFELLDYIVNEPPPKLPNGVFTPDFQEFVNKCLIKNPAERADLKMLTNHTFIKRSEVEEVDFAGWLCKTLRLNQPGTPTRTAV

Cc1nc(C2CCN(C(=O)c3ccc(OC(F)(F)F)cc3N)CC2)c2ncc(N3CCN(C)CC3)cc2n1 [BAY-693]
inactive: [1] 89% | [2] 86% | [3] 93% | [4] 95% | [5] 100% | [6] 97% | [7] 100% | [8] 100% | [9] 100% | [10] 74% | [11] 91% | [12] 95% | [13] 78% | [14] 100% | [15] 100% | [16] 100% | [17] 100% | [18] 100% | [19] 100% | [20] 100% | [21] 97% | [22] 91% | [23] 100% | [24] 100%

CN1CCN(c2cnc3c(C4CCN(C(=O)c5ccc(OC(F)(F)F)cc5N)CC4)ncnc3c2)CC1 [BAY-885]
inactive: [1] 97% | [2] 94% | [3] 100% | [4] 85% | [5] 100% | [6] 100% | [7] 100% | [8] 100% | [9] 100% | [10] 77% | [11] 100% | [12] 93% | [13] 78% | [14] 100% | [15] 99% | [16] 91% | [17] 100% | [18] 100% | [19] 100% | [20] 100% | [21] 96% | [22] 94% | [23] 91% | [24] 100%
